From US10766869B2, “Triazoles for the treatment of demyelinating dieases” (Vertex Pharmaceuticals Incorporated, priority 2015, dated 2020) come the findings set out here.

The assay relates to primary rat mixed cortical cells. Put plainly: In vitro myelination assay (MBP positive myelin strands, fold myelin pixels above background). The note with it: for fold induction at 1 µM / fold induction at 10 µM: Rattus norvegicus. It counts as cell-based. The gist of the method: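 Read-out is total MBP-positive myelin strand pixels per well, detected by custom ridge-tracing software and reported as fold over untreated baseline. Primary P1 rat mixed cortical cells received compound (1.0 or 10.0 μM) for 14 days, with medium half-replaced on days 6 and 10. Standard deviation was taken across all replicates.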

Where [1] appears, read: 1.0 μM compound, read-out: Fold myelin pixels above background relative to baseline of no added compound.
Setting [2] is: 10.0 μM compound, read-out: Fold myelin pixels above background relative to baseline of no added compound.
Setting [3] is: 1.0 μM compound, relative to baseline of no added compound, read-out: Fold myelin pixels above background.
Setting [4] is: 10.0 μM compound, relative to baseline of no added compound, read-out: Fold myelin pixels above background.
[5] abbreviates: 1.0 μM compound, relative to baseline of no added compound, read-out: Fold myelin pixels above background, 1.0 μM.
[6] abbreviates: 10.0 μM compound, relative to baseline of no added compound, read-out: Fold myelin pixels above background, 10.0 μM.

Read-outs that look alike come from different tables or passages of the source. Some results are limits rather than exact numbers.

`Cc1cc(Nc2ncn(-c3cc(F)cc(F)c3)n2)cc(NC2CCN(C3CCC3)CC2)c1` [Compound 1070, N1-(1-cyclobutyl-4-piperidyl)-N3-[1-(3,5-difluorophenyl)-1,2,4-triazol-3-yl]-5-methyl-benzene-1,3-diamine]: the fold induction at 1 µM under setting [1] lay in the range of 10 to 100. The fold induction at 10 µM under setting [2] was at most 1.
As to `Cc1cc(Nc2ncn(-c3ccc(F)c(F)c3)n2)cc(O[C@@H]2CCCN(C3COC3)C2)c1` (single isomer, unassigned) [Compound 665], the fold induction at 1 µM under setting [3] fell in the range of 10 to 100. Moreover, under setting [4], the fold induction at 10 µM is 1 to 10.
Regarding `CC1=NOC(CNc2cc(C)cc(Nc3ncn(-c4cc(F)cc(F)c4)n3)c2)C1` (stereo not drawn) [Compound 1004, N1-[1-(3,5-difluorophenyl)-1,2,4-triazol-3-yl]-5-methyl-N3-[(3-methyl-4,5-dihydroisoxazol-5-yl)methyl]benzene-1,3-diamine], the fold induction at 1 µM under setting [1] fell in the range of 1 to 10. Besides, under setting [2], the fold induction at 10 µM fell in the range of 1 to 10.
In the case of `Cc1cc(Nc2ncn(-c3ccccc3)n2)nc(N2CC(N3CCOCC3)C2)c1` [Compound 502, 4-methyl-6-(3-morpholinoazetidin-1-yl)-N-(1-phenyl-1,2,4-triazol-3-yl)pyridin-2-amine], under setting [3], the fold induction at 1 µM was 1 to 10. In addition, the fold induction at 10 µM under setting [4] was at most 1.
For the compound `CCN(CC)CC1CN(c2cc(C)cc(Nc3ncn(-c4cc(F)cc(F)c4)n3)c2)CCO1` (stereo not drawn) [Compound 1017, N-[3-[2-(diethylaminomethyl)morpholin-4-yl]-5-methyl-phenyl]-1-(3,5-difluorophenyl)-1,2,4-triazol-3-amine], the fold induction at 1 µM under setting [1] fell in the range of 10 to 100. Also, the fold induction at 10 µM under setting [2] was at most 1.
In the case of `Cc1cc(NCCN2CC[S+]([O-])CC2)cc(Nc2ncn(-c3cc(F)cc(F)c3)n2)c1` [Compound 940, N1-[1-(3,5-difluorophenyl)-1,2,4-triazol-3-yl]-5-methyl-N3-[2-(1-oxo-1,4-thiazinan-4-yl)ethyl]benzene-1,3-diamine], the fold induction at 1 µM under setting [1] was 10 to 100. Also, the fold induction at 10 µM under setting [2] lay in the range of 1 to 10.
The corresponding values for `Cc1cc(Nc2ncn(-c3cc(F)cc(F)c3)n2)nc(C2CCN(C3COC3)CC2)c1` [Compound 801, N-[1-(3,5-difluorophenyl)-1,2,4-triazol-3-yl]-4-methyl-6-[1-(oxetan-3-yl)-4-piperidyl]pyridin-2-amine] are 1 to 10 and 1 to 10.
`Cc1cc(Nc2ncn(-c3cc(F)cc(F)c3)n2)cc(OCC2CC(F)(F)C2)c1` [Compound 706, N-[3-[(3,3-difluorocyclobutyl)methoxy]-5-methyl-phenyl]-1-(3,5-difluorophenyl)-1,2,4-triazol-3-amine]: under setting [3], the fold induction at 1 µM lay in the range of 1 to 10. In addition, the fold induction at 10 µM under setting [4] lay in the range of 1 to 10.
Consider `Cc1cc(Nc2ncn(-c3cc(F)cc(F)c3)n2)cc(C2CCCNC2)c1` (stereo not drawn) [Compound 429, 1-(3,5-difluorophenyl)-N-[3-methyl-5-(3-piperidyl)phenyl]-1,2,4-triazol-3-amine], for which the fold induction at 1 µM under setting [3] was 1000 to 10000. For the same compound, the fold induction at 10 µM under setting [4] was at most 1.
Taken in the same sequence, the figures for `COCC1CCCN(c2cc(C)cc(Nc3ncn(-c4cc(F)cc(F)c4)n3)n2)C1` (stereo not drawn) [Compound 786, N-[1-(3,5-difluorophenyl)-1,2,4-triazol-3-yl]-6-[3-(methoxymethyl)-1-piperidyl]-4-methyl-pyridin-2-amine] were 1 to 10 and at most 1.
Turning to `COc1ccc(-n2cnc(Nc3cc(F)cc(N4CCN(C5COC5)CC4)c3)n2)cc1F` [Compound 781, 1-(3-fluoro-4-methoxy-phenyl)-N-[3-fluoro-5-[4-(oxetan-3-yl)piperazin-1-yl]phenyl]-1,2,4-triazol-3-amine], under setting [3], the fold induction at 1 µM lay within 1 to 10. Besides, the fold induction at 10 µM under setting [4] was at most 1.
The corresponding values for `Cc1cc(Nc2ncn(-c3cc(F)cc(F)c3)n2)cc(OC2CCCOC2)c1` (stereo not drawn) [Compound 635, 1-(3,5-difluorophenyl)-N-(3-methyl-5-tetrahydropyran-3-yloxy-phenyl)-1,2,4-triazol-3-amine] are 10 to 100 and 1 to 10.
For the compound `Cc1cc(NCC2CN(C3CC3)CCO2)cc(Nc2ncn(-c3cc(F)cc(F)c3)n2)c1` (stereo not drawn) [Compound 968, N3-[(4-cyclopropylmorpholin-2-yl)methyl]-N1-[1-(3,5-difluorophenyl)-1,2,4-triazol-3-yl]-5-methyl-benzene-1,3-diamine], the fold induction at 1 µM under setting [1] was 1 to 10. In addition, the fold induction at 10 µM under setting [2] was 1 to 10.
For the compound `Cc1cc(Nc2ncn(-c3cc(F)cc(F)c3)n2)cc(N2CCC(N3CCCC3)C2)c1` (stereo not drawn) [Compound 1060, 1-(3,5-difluorophenyl)-N-[3-methyl-5-(3-pyrrolidin-1-ylpyrrolidin-1-yl)phenyl]-1,2,4-triazol-3-amine], the fold induction at 1 µM under setting [1] lay within 1 to 10. Also, the fold induction at 10 µM under setting [2] was at most 1.
For `Cc1cc(Nc2ncn(-c3cc(F)ccc3F)n2)cc(N2CCN(C3COC3)CC2)c1` [Compound 437, 1-(2,5-difluorophenyl)-N-[3-methyl-5-[4-(oxetan-3-yl)piperazin-1-yl]phenyl]-1,2,4-triazol-3-amine], the fold induction at 1 µM under setting [3] was 10 to 100. For the same compound, under setting [4], the fold induction at 10 µM was in the range of 10 to 100.
As for `Cc1cc(Nc2ncn(-c3cc(F)cc(F)c3)n2)cc(N2CCN(C)C(=O)C2)c1` [Compound 360, 4-[3-[[1-(3,5-difluorophenyl)-1,2,4-triazol-3-yl]amino]-5-methyl-phenyl]-1-methyl-piperazin-2-one], the fold induction at 1 µM under setting [5] is 10 to 100. Under setting [6], the fold induction at 10 µM lay in the range of 10 to 100.
Turning to `Cc1cc(Nc2ncn(-c3cncc(F)c3)n2)cc(N2CCN(C)CC2)c1` [Compound 387, 1-(5-fluoro-3-pyridyl)-N-[3-methyl-5-(4-methylpiperazin-1-yl)phenyl]-1,2,4-triazol-3-amine], the fold induction at 1 µM under setting [3] was in the range of 10 to 100. Further, under setting [4], the fold induction at 10 µM is 100 to 1000.
Taken in the same sequence, the figures for `CC(F)(F)c1cc(Nc2ncn(-c3ccc(F)c(F)c3)n2)nc(N2CCN(C3COC3)CC2)c1` [Compound 579, 4-(1,1-difluoroethyl)-N-[1-(3,4-difluorophenyl)-1,2,4-triazol-3-yl]-6-[4-(oxetan-3-yl)piperazin-1-yl]pyridin-2-amine] were 1 to 10 and 1 to 10.
As to `Cc1cc(Nc2ncn(-c3cc(F)cc(F)c3)n2)cc(NC2COC2)c1` [Compound 240, N3-[1-(3,5-difluorophenyl)-1,2,4-triazol-3-yl]-5-methyl-N1-(oxetan-3-yl)benzene-1,3-diamine], the fold induction at 1 µM under setting [5] lay in the range of 100 to 1000. For the same compound, under setting [6], the fold induction at 10 µM was 1 to 10.
Take `COC1CCN(c2cc(C)cc(Nc3ncn(-c4cc(F)cc(F)c4)n3)c2)C1` (stereo not drawn) [Compound 164, 1-(3,5-difluorophenyl)-N-[3-(3-methoxypyrrolidin-1-yl)-5-methyl-phenyl]-1,2,4-triazol-3-amine]: under setting [5], the fold induction at 1 µM fell in the range of 1 to 10. Moreover, the fold induction at 10 µM under setting [6] lay within 1 to 10.
For `Cc1cc(Nc2ncn(-c3cncc(C)n3)n2)cc(N2CCN(C3COC3)CC2)c1` [Compound 271, N-[3-methyl-5-[4-(oxetan-3-yl)piperazin-1-yl]phenyl]-1-(6-methylpyrazin-2-yl)-1,2,4-triazol-3-amine], the fold induction at 1 µM under setting [5] was at most 1. For the same compound, the fold induction at 10 µM under setting [6] was at most 1.
Take `CCN1CCOC(CNc2cc(C)cc(Nc3ncn(-c4cc(F)cc(F)c4)n3)c2)C1` (stereo not drawn) [Compound 893, N3-[1-(3,5-difluorophenyl)-1,2,4-triazol-3-yl]-N1-[(4-ethylmorpholin-2-yl)methyl]-5-methyl-benzene-1,3-diamine]: the fold induction at 1 µM under setting [1] was in the range of 1 to 10. Under setting [2], the fold induction at 10 µM was at most 1.
As for `Cc1cc(Nc2ncn(-c3cc(F)cc(F)c3)n2)cc(C2CCN(C3COC3)C2)c1` (stereo not drawn) [Compound 25, 1-(3,5-difluorophenyl)-N-[3-methyl-5-[1-(oxetan-3-yl)pyrrolidin-3-yl]phenyl]-1,2,4-triazol-3-amine], the fold induction at 1 µM under setting [5] lay in the range of 1000 to 10000. Also, the fold induction at 10 µM under setting [6] lay in the range of 1000 to 10000.
Turning to `Fc1cc(Nc2ncn(-c3ccc(C(F)(F)F)cc3)n2)cc(N2CCCC2)c1` [Compound 441, N-(3-fluoro-5-pyrrolidin-1-yl-phenyl)-1-[4-(trifluoromethyl)phenyl]-1,2,4-triazol-3-amine], the fold induction at 1 µM under setting [3] is 1 to 10. Under setting [4], the fold induction at 10 µM is at most 1.
The corresponding values for `Cc1cc(Nc2ncn(-c3ccccc3)n2)cc(C2CCN(CC3(C)COC3)CC2)c1` [Compound 483, N-[3-methyl-5-[1-[(3-methyloxetan-3-yl)methyl]-4-piperidyl]phenyl]-1-phenyl-1,2,4-triazol-3-amine] are at most 1 and at most 1.
Taken in the same sequence, the figures for `COc1cc(F)cc(-n2cnc(Nc3cc(C4CC4)cc(N4CCN(C5COC5)CC4)c3)n2)c1` [Compound 388, N-[3-cyclopropyl-5-[4-(oxetan-3-yl)piperazin-1-yl]phenyl]-1-(3-fluoro-5-methoxy-phenyl)-1,2,4-triazol-3-amine] were 10 to 100 and at most 1.
In the case of `Cc1cc(Nc2ncn(-c3ccccc3)n2)c(F)c(OC2CCOC2)c1` (single isomer, unassigned) [Compound 1052, N-(2-fluoro-5-methyl-3-tetrahydrofuran-3-yloxy-phenyl)-1-phenyl-1,2,4-triazol-3-amine], the “Fold myelin pixels above background relative to baseline of no added compound” value by setting is: (1.0 μM compound) “++ (>10 to 100x)”; (10.0 μM compound) “++ (>10 to 100x)”.
